The results in this text go back to patent US11191811B2, “Osteocalcin as a treatment for frailty associated with aging” (THE TRUSTEES OF COLUMBIA UNIVERSITY IN THE CITY OF NEW YORK, priority 2014, dated 2021).

“Also recorded” adds a separate entry of the source.

Assay [1] concerns muscles of WT mice. The assay is described as follows: Western blot of Akt, AMPK and HSL phosphorylation in muscles of WT mice given Ocn. The class given is in vivo, mouse. As for the experimental part: FIG. 31. Osteocalcin treatment increases muscle function in young and old WT mice. (A-B) Performance during endurance exercise of 3 month-old WT, Gprc6af/f and Gprc6aMck−/− female mice treated with Ocn (n=6-10 per group). (C) Performance during endurance exercise of 12 and 15 month-old WT female mice treated with Ocn (n=6-10 per group). (D) Western blot analysis of Akt phosphorylation (Ser473) in muscles of WT mice injected with Ocn (500 ng/g) after a single bout of exercise. (E) Western blot analysis of AMPK phosphorylation ([…]) in muscles of WT mice injected with Ocn (500 ng/g) after a single bout of exercise. (F) Western blot analysis of HSL phosphorylation (Ser563) in muscles of WT mice injected with Ocn (500 ng/g) after a single bout of exercise. (G) Uptake of ^3H-2-DG in glycolytic (Gly—white quadriceps) and oxidative (Ox—red quadriceps) muscles after a single bout of exercise in 15 month-old WT mice receiving Ocn before running (n=5 per group). (H) Performance during endurance exercise of 10 month-old WT mice receiving Ocn for 28 days (n=7 per group). (I) Expression of Cd36, Fatp1 and Cpt1b in gastrocnemius of 10 month-old WT mice receiving Ocn for 28 days (n=7 per group). (J) Western blot analysis of Akt phosphorylation (Ser473) in muscles of WT mice receiving Ocn for 28 days (n=7 per group). (K) Schematic representation of how osteocalcin signaling in myofibers and IL-6 cooperate to increase exercise capacity.
To determine if osteocalcin has the same ability in older mice, 12 and 15 month-old mice that have low circulating osteocalcin levels were injected prior to running with 500 ng/g of body weight of osteocalcin in order to raise their circulating levels substantially. […] This was due to an increase in the phosphorylation of Akt, AMPK and HSL, as well as in glucose uptake, that occurred to a greater extent in oxidative muscles that express Gprc6a at the highest level, than in glycolytic muscles (FIG. 31C-F). Whether chronic delivery of osteocalcin through mini-pumps (90 ng/hour) for 28 days would increase muscle function in 9 month old mice that have the lowest circulating osteocalcin levels was also tested. […] This improved ability to perform exercise was caused in part by an increase in the expression in muscle of the fatty acid transporter Fatp1 and an activation of the Akt pathway (FIG. 31H-).

The subject of assay [2] is Leydig cells. The assay is described as follows: Testosterone production by testis explants or primary Leydig cells. The class given is cell-based, mouse. To be noted: recombinant uncarboxylated osteocalcin 0-100 ng/ml of culture medium (FIG. 10). On the procedure: FIG. 10. Osteocalcin favors male fertility by increasing testosterone production by Leydig cells. (A-B) Testosterone production by testis explants (A) or primary Leydig cells (B) cultured in the presence of supernatants of wild type (WT) or Osteocalcin^−/− osteoblast cultures. (C-D) Testosterone production by testis explants (C) or primary Leydig cells (D) following stimulation with increasing doses of recombinant uncarboxylated osteocalcin (0, 0.3, 1, 3, 10, 100 ng/ml of culture medium). (E) Circulating testosterone levels in WT mice 1 hour, 4 hours, and 8 hours after vehicle or recombinant uncarboxylated osteocalcin (3 ng/g of body weight) injection. (F-G) Comparison between the average litter size (F) and frequency (G) generated by WT, Osteocalcin^−/−, or Esp^−/− male littermate mice crossed with WT females (breeding was tested from 6 to 16 weeks of age). (H-L) Testis size (H), testis weight (I), epididymides weight (J), seminal vesicles weight (K), and sperm count (L) in Osteocalcin^−/− and Esp^−/− compared to WT littermate mice. (M) Circulating steroid sex hormone levels in Osteocalcin^−/− and Esp^−/− compared to WT littermate mice. The analyses were performed on breeder and non-breeder mice. Error bars represent SEM. Student's t test (*) P<0.05, (**) P<0.001.

Assay [3] concerns WT myotubes. The assay is described as follows: 3H-2-deoxyglucose uptake in myotubes. The assay is classed as cell-based, mouse. On the procedure: (§1) The main nutrient used by muscle to generate energy at the onset of exercise is glucose and osteocalcin increased the uptake of ^3H-2-deoxyglucose (^3H-2DG) in WT but not in Gprc6a−/− myotubes (FIG. 26D-E). To exclude the involvement of other secreted molecules, this experiment was performed in serum-free conditions. […] This decrease in glucose uptake in muscles of Gprc6aMck−/− mice provides an explanation for why blood glucose levels were two-fold higher in Gprc6aMck−/− and Gprc6aHsa−/− than in control mice after exercise (FIG. 26G-H).
(§2) Glucose and insulin tolerance tests were performed as previously described (Lee et al., 2007, Cell 130:456-469). For in vivo glucose uptake, a bolus of 2-deoxy-d-[^3H]glucose (^3H-2-DG, Perkin Elmer) (10 μCi) was administered before an endurance run. ^3H-2-DG and ^3H-2-DG-6-P content in muscle was determined by liquid scintillation counter and normalized to muscle weight. Glucose uptake and fatty acid oxidation assays in myotubes were performed as previously described (Sebastian et al., 2007, Am. J. Physiol. Endocrinol. Metab. 292:E667-686). GLUT4 translocation was determined by flow cytometry using an antibody against the extracellular domain of the GLUT4 protein (Santa Cruz, Sc-1606). Measurements of oxygen consumption rates (OCR) in isolated myofibers were performed using a XF24 Seahorse Analyzer® (Seahorse Biosciences). To analyze mitochondrial function, myofibers were treated with three compounds in succession (oligomycin 10 μg/ml, FCCP 200 μM, rotenone 0.2 μM) and OCR was recorded following administration of each of them.
(§3) Culture of skeletal muscle myoblasts from 7 day-old mice was performed as described (Gharaibeh et al., 2008, Nature Protocols 3:1501-1509). Myoblasts were differentiated into myotubes for 3-4 days in a medium containing 5% horse serum. Muscle fibers were isolated from flexor digitorum brevis muscle. Muscles were dissected with DMEM 2% collagenase for 2 hours at 37° C., in a 5% CO2 incubator. […]

Assay [4] deals with Gprc6a−/− myotubes. Put plainly: 3H-2-deoxyglucose uptake in myotubes. Conditions: serum-free conditions. The class given is cell-based, mouse. On the procedure: as §1, §2, §3
The mark [5] stands for this setting: WT mice injected with Ocn (500 ng/g), after a single bout of exercise, listed as osteocalcin.

For “uncarboxylated osteocalcin: Recombinant uncarboxylated mouse osteocalcin, bacterially produced, purified on glutathione beads and cleaved from the GST subunit by thrombin (YLGASVPSPDPLEPTREQCELNPACDELSDQYGLKTAYKRIYGITI)”, the “phosphorylation of AMPK in muscle” value in assay [1] (WT mice injected with Ocn (500 ng/g), after a single bout of exercise) was “increase”. Besides, the “phosphorylation of Akt in muscle” value in assay [1] (WT mice injected with Ocn (500 ng/g), after a single bout of exercise, listed as Osteocalcin) is reported as “induced”; in assay [1] (setting [5]), “increase”. In addition, in assay [1] (setting [5]), the “phosphorylation of HSL (Ser563) in muscle” value is given as “enhanced; also recorded: increase”. In assay [1] (mini-pumps 90 ng/hour for 28 days), the “Akt pathway in muscle” value was “activation”. In assay [2], the “testosterone production by Leydig cells” value is given as “increasing”. For the same substance, the “uptake of 3H-2-deoxyglucose (3H-2DG)” value in assay [3] (WT myotubes, serum-free conditions) is “increased”; in assay [4], “not”. For the same substance, the glucose uptake entry in assay [3] (as worded in FIG. 19 (wild-type) and summary (in muscle)) was “favors”.
